What was measured:
rice = test: Test B flooded paddy test; type: in vivo, Oryza sativa; details: 1000 g ai/ha, scale 0 to 100 (0 no effect, 100 complete control)
Procedure, shortened: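 Scale 0–100: zero equals no visible effect, 100 complete control, judged by eye relative to controls. Timing: 13 to 15 days in greenhouse post-treatment. Growth stage at spraying: two leaves (paddy) or one to four leaves, 2–18 cm (postemergence).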

barnyardgrass [1] = test: Test B flooded paddy test; type: in vivo, Echinochloa crus-galli; details: 1000 g ai/ha, scale 0 to 100 (0 no effect, 100 complete control)
Procedure, shortened: (§1)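 Treated at 2-leaf (paddy) or 1–4-leaf, 2–18 cm (postemergence); greenhouse 13–15 d; visual score vs control, 0 none to 100 complete control; dash = not tested.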

cocklebur = test: Test B pre-/postemergence herbicide test; type: in vivo, Xanthium strumarium; details: for Cocklebur plant response rating: postemergence
Procedure, shortened: (§2)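 Herbicidal effect was judged by eye on a 0–100 scale after plants stood 13 to 15 days in the greenhouse following pre- or postemergence treatment with surfactant-containing formulations.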

wheat = test: Test B postemergence herbicide test; type: in vivo, Triticum aestivum; design: key to Wheat plant response rating: 0 = no effect, 100 = complete control; details: postemergence
Procedure, shortened: (§3)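 Formulated test chemicals went onto postemergence plants measuring 2 to 18 cm, at one to four leaves. For the paddy assay, species had reached two leaves. Scoring took place 13–15 days later by eye, relative to untreated plants, using 0 for no effect up to 100 for full control.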

giant foxtail = test: Test B pre-/postemergence herbicide test; type: in vivo, Setaria faberi; details: for Foxtail, Giant plant response rating: postemergence
Procedure, shortened: (§4)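 Formulation: non-phytotoxic solvent mix with surfactant. Timing: preemergence on seed and postemergence on 2–18 cm plants, applied concurrently. Readout after 13–15 d greenhouse: visual 0–100 control rating against controls.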

barnyardgrass [2] = test: Test B pre-/postemergence herbicide test; type: in vivo, Echinochloa crus-galli; details: for Barnyardgrass plant response rating: postemergence
Procedure, shortened: as §2

morningglory = test: Test B pre-/postemergence herbicide test; type: in vivo, Ipomoea coccinea; details: for Morningglory plant response rating: postemergence
Procedure, shortened: as §2

ducksalad = test: Test B flooded paddy test; type: in vivo, Heteranthera limosa; details: 1000 g ai/ha, scale 0 to 100 (0 no effect, 100 complete control)
Procedure, shortened: as §1

[3] = test system: small flower umbrella sedge; test: Test B flooded paddy test; type: in vivo, Cyperus difformis; details: 1000 g ai/ha, scale 0 to 100 (0 no effect, 100 complete control)
Procedure, shortened: as §1

velvetleaf = test: Test B pre-/postemergence herbicide test; type: in vivo, Abutilon theophrasti; details: for Velvetleaf plant response rating: postemergence
Procedure, shortened: as §4

wild oat = test: Test B postemergence herbicide test; type: in vivo, Avena fatua; details: postemergence
Procedure, shortened: as §3

large crabgrass = test: Test B pre-/postemergence herbicide test; type: in vivo, Digitaria sanguinalis; details: for Crabgrass, Large plant response rating: postemergence
Procedure, shortened: as §4

pigweed = test: Test B pre-/postemergence herbicide test; type: in vivo, Amaranthus retroflexus; details: for Pigweed plant response rating: postemergence
Procedure, shortened: as §4

lambsquarters = test: Test B pre-/postemergence herbicide test; type: in vivo, Chenopodium album; details: for Lambsquarters plant response rating: postemergence
Procedure, shortened: as §4

Surinam grass = test: Test B pre-/postemergence herbicide test; type: in vivo, Urochloa decumbens; details: for Surinam Grass plant response rating: postemergence
Procedure, shortened: as §4

[4] = 125 g ai/ha, 0 = no effect, 100 = complete control, preemergence
[5] = 125 g ai/ha, visual rating, scale 0 (no effect) to 100 (complete control)
[6] = 500 g ai/ha, visual rating, 0 = no effect, 100 = complete control, preemergence
[7] = 500 g ai/ha, scale 0 to 100, 0 is no effect, 100 is complete control

CCN1N=C(C(C)(C)C)CC1C(=O)Nc1cc(C(=O)N2CCCC2)ccc1F (racemic) [Compound 309]
40: Cocklebur plant response rating (cocklebur; [5]) | Foxtail, Giant plant response rating (giant foxtail; [7]) | Barnyardgrass plant response rating (barnyardgrass [2]; [7]) | Morningglory plant response rating (morningglory; [7]) | Velvetleaf plant response rating (velvetleaf; [7]) | Oat, Wild plant response rating (wild oat; [7]) | Crabgrass, Large plant response rating (large crabgrass; [7]) | Lambsquarters plant response rating (lambsquarters; [5]) | Surinam Grass plant response rating (Surinam grass; [7])
30: Cocklebur plant response rating (0 to 100 scale) (cocklebur; [4]) | Wheat plant response rating (wheat; [7])
90: Barnyardgrass plant response rating (barnyardgrass [1]) | Ducksalad plant response rating (ducksalad) | Lambsquarters plant response rating (0 to 100 scale) (lambsquarters; [4]) | Plant response rating, Lambsquarters (lambsquarters; [6])
0: Morningglory plant response rating (0 to 100 scale) (morningglory; [4]) | Morningglory plant response rating (morningglory; [5]) | Plant response rating, Morningglory (morningglory; [6]) | Crabgrass, Large plant response rating (large crabgrass; [5])
60: Crabgrass, Large plant response rating (0 to 100 scale) (large crabgrass; [4]) | Surinam Grass plant response rating (0 to 100 scale) (Surinam grass; [4])
80: Rice plant response rating (rice) | Plant response rating, Cocklebur (cocklebur; [6]) | Foxtail, Giant plant response rating (0 to 100 scale) (giant foxtail; [4]) | Barnyardgrass plant response rating (0 to 100 scale) (barnyardgrass [2]; [4]) | Sedge, Umbrella plant response rating [3] | Lambsquarters plant response rating (lambsquarters; [7])
100: Plant response rating, Foxtail, Giant (giant foxtail; [6]) | Plant response rating, Barnyardgrass (barnyardgrass [2]; [6]) | Plant response rating, Velvetleaf (velvetleaf; [6]) | Plant response rating, Crabgrass, Large (large crabgrass; [6]) | Plant response rating, Pigweed (pigweed; [6]) | Plant response rating, Surinam Grass (Surinam grass; [6])
50: Pigweed plant response rating (pigweed; [5])
20: Wheat plant response rating (wheat; [5]) | Foxtail, Giant plant response rating (giant foxtail; [5]) | Barnyardgrass plant response rating (barnyardgrass [2]; [5]) | Velvetleaf plant response rating (velvetleaf; [5]) | Oat, Wild plant response rating (wild oat; [5])
70: Cocklebur plant response rating (cocklebur; [7]) | Pigweed plant response rating (0 to 100 scale) (pigweed; [4]) | Pigweed plant response rating (pigweed; [7])
10: Surinam Grass plant response rating (Surinam grass; [5])

— patent US20060069132A1, “Azolecarboxamide herbicides” (priority 2004, published 2006)
